In brackets after ≈: the same amount, converted by molar mass.
What was measured:
Apis mellifera = details: acute, mortality
Bibionidae = details: chronic/long-term
Colinus virginianus = details: acute; oral; diet; mortality
Daphnia magna = details: chronic/long-term; duration: 21 days; other
Lepomis macrochirus = details: acute; duration: 96 hours; mortality
Oncorhynchus mykiss = details: chronic/long-term; duration: 21 days
Typhlodromus pyri = details: not reported; other
Aphidius rhopalosiphi = test: LR50; higher = less toxic; details: not reported; other

Compound Cc1cc(C2CC2)nc(Nc2ccccc2)n1 [Cyprodinil] has an LD50 (Anas platyrhynchos; acute, oral, unspecified, mortality) of over 500 mg/kg, an NOEC (Anas platyrhynchos; reproductive) of 64 mg/kg and an LD50 (Apis mellifera; duration: 48 hours, dermal) of over 784 µg/piece. It also gave an LD50 (Apis mellifera; oral, unspecified) of over 112 µg/piece, an NOEC (Bibionidae; duration: 27 days, other) of 80 mg/kg and an NOEC (Bibionidae; duration: 28 days, no effects) of 0.24 mg/L. For the same compound, the LC50 (Colinus virginianus) was over 743 mg/kg, the NOEC (Daphnia magna) was 0.0082 mg/L and the LC50 (Lepomis macrochirus) was 2.17 µg/mL (≈ 9.63 µM). It also gave an NOEC (Oncorhynchus mykiss) of 0.083 mg/L, an LD50 (Rattus norvegicus; acute, oral, mortality) of over 2000 mg/kg and an NOAEL (Rattus norvegicus; chronic, duration: 2 years, M/F, organ weight) of 3 mg/kg-day. The NOAEL (Rattus norvegicus; reproduction developmental, organ weight) was 72.7 mg/kg-day, the NOAEL (Rattus norvegicus; subchronic, duration: 90 days, histopathology: nonneoplastic) was 3.14 mg/kg-day and the LC50 (Tagia sp.; acute, duration: 14 days, mortality) was 192 mg/kg. For the same compound, the NOEC (Tagia sp.; chronic/long-term, duration: 56 days, reproduction) was 15000 g/ha, the LEL (Typhlodromus pyri) was 750 g/ha and the LR50 (Aphidius rhopalosiphi) was 750 g/ha.

Source: EPA's ToxValDB 9.5 (doi:10.2903/j.efsa.2006.51r)
